Laboratory results taken from patent US11773078B2, “Furin inhibitors” (Glaxosmithkline Intellectual Property Development Limited, priority 2018, dated 2023).

Assays:
[1] = target: T1, furin (endogenous protease) in U20S cells (Homo sapiens, UniProt P09958); test: Furin cell-based assay (image-based, Golgi-targeted GFP with BMP10 furin/PCSK cleavage site); conditions: 24-hour incubation, read-out: furin golgi cell pXC50 (converted);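 also: Read-out is mean GFP fluorescence of Golgi puncta per cell by high-content imaging, retained when furin inhibited, over an eleven-point 0.00017–10 µM series, four-parameter fit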
T1 construct: the endogenous protease cleaves GFP; endogenous in cells; host or cells: U2OS cells transduced with a BacMam reporter
T1 sequence (P09958 108-794): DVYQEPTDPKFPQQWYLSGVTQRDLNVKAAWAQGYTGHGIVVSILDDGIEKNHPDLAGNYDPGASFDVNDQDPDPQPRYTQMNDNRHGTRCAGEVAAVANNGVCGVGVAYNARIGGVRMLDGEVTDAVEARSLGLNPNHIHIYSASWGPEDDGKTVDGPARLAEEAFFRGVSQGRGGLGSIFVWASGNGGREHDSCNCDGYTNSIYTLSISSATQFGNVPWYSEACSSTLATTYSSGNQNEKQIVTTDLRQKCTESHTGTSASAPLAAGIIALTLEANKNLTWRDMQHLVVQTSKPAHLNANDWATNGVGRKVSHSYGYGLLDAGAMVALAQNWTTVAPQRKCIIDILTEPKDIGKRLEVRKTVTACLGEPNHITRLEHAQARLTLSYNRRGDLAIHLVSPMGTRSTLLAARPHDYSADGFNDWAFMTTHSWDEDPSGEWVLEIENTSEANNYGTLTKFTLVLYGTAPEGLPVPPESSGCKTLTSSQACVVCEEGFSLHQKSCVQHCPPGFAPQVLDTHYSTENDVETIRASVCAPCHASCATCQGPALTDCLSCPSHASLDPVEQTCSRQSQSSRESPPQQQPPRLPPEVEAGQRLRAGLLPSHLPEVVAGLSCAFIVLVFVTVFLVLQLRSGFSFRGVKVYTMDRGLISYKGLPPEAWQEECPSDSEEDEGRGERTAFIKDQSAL

[2] = target: T2, Furin (108-574-Tev-Flag-His) enzyme (Homo sapiens, UniProt P09958); test: Furin enzyme assay; type: biochemical; conditions: for IC50: read-out: furin enzyme pIC50 (converted)
T2 construct: Furin (108-574-Tev-Flag-His) enzyme was expressed and purified from CHO cells; TEV cleavage site (C); FLAG (C); His (C); made in house; host or cells: CHO cells
T2 sequence (P09958 108-574): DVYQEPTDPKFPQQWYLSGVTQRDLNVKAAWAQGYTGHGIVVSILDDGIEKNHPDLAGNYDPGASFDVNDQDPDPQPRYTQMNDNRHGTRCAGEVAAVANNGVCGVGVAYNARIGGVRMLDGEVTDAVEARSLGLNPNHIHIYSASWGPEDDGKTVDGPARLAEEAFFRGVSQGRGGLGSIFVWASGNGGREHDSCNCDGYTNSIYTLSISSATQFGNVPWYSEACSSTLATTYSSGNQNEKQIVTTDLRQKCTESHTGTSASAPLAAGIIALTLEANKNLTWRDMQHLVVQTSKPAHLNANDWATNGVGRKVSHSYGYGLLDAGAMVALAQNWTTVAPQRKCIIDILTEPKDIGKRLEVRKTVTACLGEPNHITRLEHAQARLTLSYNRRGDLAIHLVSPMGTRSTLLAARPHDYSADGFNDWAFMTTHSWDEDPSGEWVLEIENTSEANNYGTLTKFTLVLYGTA
Summary of the method: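 Compounds ran as 11-point threefold dilutions (0.00017–10 μM final) against 40 pM furin, purified from CHO cells, for 2 h at room temperature. Buffer: 100 mM HEPES pH7.5 with 1 mM CaCl2 and 0.005% Triton X-100. Envision readout. Four-parameter curve gives pXC50.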

EC50 [1] [nM]	IC50 [2] [nM]	furin enzyme pIC50 [2]	Compound
12.6	0.0251	–	CC(=O)NCC1CCN(Cc2cc(Oc3ccc(N4C[C@@H]5C[C@H]4CN5CCS(C)(=O)=O)nc3)nc(-c3cc(Cl)cc(Cl)c3)c2)CC1 [Example 183, N-((1-((2-(3,5-Dichlorophenyl)-6-((6-((1S,4S)-5-(2-(methylsulfonyl)ethyl)-2,5-diazabicyclo[2.2.1]heptan-2-yl)pyridin-3-yl)oxy)pyridin-4-yl)methyl)piperidin-4-yl)methyl)acetamide]
39.8	–	9.1	CC(=O)NCC1CCN(Cc2cc(Oc3ccc(N4CCN(CCC(=O)O)[C@@H](C)C4)nc3)nc(-c3cc(Cl)cc(Cl)c3)c2)CC1 [Example 186, (S)-3-(4-(5-((4-((4-(acetamidomethyl)piperidin-1-yl)methyl)-6-(3,5-dichlorophenyl)pyridin-2-yl)oxy)pyridin-2-yl)-2-methylpiperazin-1-yl)propanoic acid]
79.4	1.26	–	O=C(O)CC1CCN(Cc2cc(Oc3ccc(N4C[C@@H]5C[C@H]4CN5)nc3)nc(-c3cc(Cl)cc(Cl)c3)c2)CC1 [Example 187, 2-(1-((2-((6-((1S,4S)-2,5-diazabicyclo[2.2.1]heptan-2-yl)pyridin-3-yl)oxy)-6-(3,5-dichlorophenyl)pyridin-4-yl)methyl)piperidin-4-yl)acetic acid]
12.6	–	8.8	CCC(CCN1CCN(c2ccc(Oc3cc(CN4CCC(CNC(C)=O)CC4)cc(-c4cc(Cl)cc(Cl)c4)n3)cn2)CC1)C(=O)O (stereo not drawn) [Example 188, 4-(4-(5-((4-((4-(acetamidomethyl)piperidin-1-yl)methyl)-6-(3,5-dichlorophenyl)pyridin-2-yl)oxy)pyridin-2-yl)piperazin-1-yl)-2-ethylbutanoic acid]
31.6	–	8.7	CC(=O)NCC1CCN(Cc2cc(Oc3ccc(N4CCN(CC(C)(C)C(=O)O)CC4)nc3)nc(-c3cc(Cl)cc(Cl)c3)c2)CC1 [Example 189, 3-(4-(5-((4-((4-(acetamidomethyl)piperidin-1-yl)methyl)-6-(3,5-dichlorophenyl)pyridin-2-yl)oxy)pyridin-2-yl)piperazin-1-yl)-2,2-dimethylpropanoic acid]
158	–	10.7	CC(=O)NCC1CCN(Cc2cc(Oc3ccc(N4CCCN(CCC(=O)O)CC4)nc3)nc(-c3cc(Cl)cc(Cl)c3)c2)CC1 [Example 190, 3-(4-(5-((4-((4-(Acetamidomethyl)piperidin-1-yl)methyl)-6-(3,5-dichlorophenyl)pyridin-2-yl)oxy)pyridin-2-yl)-1,4-diazepan-1-yl)propanoic acid]
39.8	–	9.8	CC(=O)NCC1CCN(Cc2cc(Oc3ccc(N4CCN(CCC(=O)O)C(C)(C)C4)nc3)nc(-c3cc(Cl)cc(Cl)c3)c2)CC1 [Example 191, 3-(4-(5-((4-((4-(acetamidomethyl)piperidin-1-yl)methyl)-6-(3,5-dichlorophenyl)pyridin-2-yl)oxy)pyridin-2-yl)-2,2-dimethylpiperazin-1-yl)propanoic acid]
15.8	–	10.4	CC(=O)NCC1CCN(Cc2cc(Oc3ccc(N4CCCNCC4)nc3)nc(-c3cc(Cl)cc(Cl)c3)c2)CC1 [Example 192, N-((1-((2-((6-(1,4-diazepan-1-yl)pyridin-3-yl)oxy)-6-(3,5-dichlorophenyl)pyridin-4-yl)methyl)piperidin-4-yl)methyl)acetamide]
3.16	–	9	CNC1CCN(c2ccc(Oc3cc(CN4CCC(CNC(C)=O)CC4)cc(-c4cc(Cl)cc(Cl)c4)n3)cn2)CC1 [Example 193, N-((1-((2-(3,5-dichlorophenyl)-6-((6-(4-(methylamino)piperidin-1-yl)pyridin-3-yl)oxy)pyridin-4-yl)methyl)piperidin-4-yl)methyl)acetamide]
3.16	–	9.1	CC(=O)NCC1CCN(Cc2cc(Oc3ccc(N4CC5CNCC5C4)nc3)nc(-c3cc(Cl)cc(Cl)c3)c2)CC1 (stereo not drawn) [Example 194, N-((1-((2-(3,5-dichlorophenyl)-6-((6-(hexahydropyrrolo[3,4-c]pyrrol-2(1H)-yl)pyridin-3-yl)oxy)pyridin-4-yl)methyl)piperidin-4-yl)methyl)acetamide]
1	–	9.2	CC(=O)NCC1CCN(Cc2cc(Oc3ccc(N4CCNC(CO)C4)nc3)nc(-c3cc(Cl)cc(Cl)c3)c2)CC1 (stereo not drawn) [Example 195, N-((1-((2-(3,5-dichlorophenyl)-6-((6-(3-(hydroxymethyl)piperazin-1-yl)pyridin-3-yl)oxy)pyridin-4-yl)methyl)piperidin-4-yl)methyl)acetamide]
2	–	9.2	CC(=O)NCC1CCN(Cc2cc(Oc3ccc(N4CCNC(C)(C)C4)nc3)nc(-c3cc(Cl)cc(Cl)c3)c2)CC1 [Example 197, N-((1-((2-(3,5-dichlorophenyl)-6-((6-(3,3-dimethylpiperazin-1-yl)pyridin-3-yl)oxy)pyridin-4-yl)methyl)piperidin-4-yl)methyl)acetamide]
2	–	9.3	CC(=O)NCC1CCN(Cc2cc(Oc3ccc(N4CCC(N)C(C)(C)C4)nc3)nc(-c3cc(Cl)cc(Cl)c3)c2)CC1 (stereo not drawn) [Example 198, N-((1-((2-((6-(4-amino-3,3-dimethylpiperidin-1-yl)pyridin-3-yl)oxy)-6-(3,5-dichlorophenyl)pyridin-4-yl)methyl)piperidin-4-yl)methyl)acetamide]
5.01	–	9.2	CC(=O)NCC1CCN(Cc2cc(Oc3ccc(N4CCC5(CCNC5)C4)nc3)nc(-c3cc(Cl)cc(Cl)c3)c2)CC1 (stereo not drawn) [Example 199, N-((1-((2-((6-(2,7-diazaspiro[4.4]nonan-2-yl)pyridin-3-yl)oxy)-6-(3,5-dichlorophenyl)pyridin-4-yl)methyl)piperidin-4-yl)methyl)acetamide]
0.501	–	9.1	CC(=O)NCC1CCN(Cc2cc(Oc3ccc(N4CCN(C)CC4)nc3)nc(-c3cc(Cl)cc(Cl)c3)c2)CC1 [Example 200, N-((1-((2-(3,5-dichlorophenyl)-6-((6-(4-methylpiperazin-1-yl)pyridin-3-yl)oxy)pyridin-4-yl)methyl)piperidin-4-yl)methyl)acetamide]
20	–	9.4	CNCc1cc(Oc2ccc(N3CC4CNCC4C3)nc2)cc(-c2cc(Cl)cc(Cl)c2)c1 (stereo not drawn) [Example 201, 1-(3′,5′-dichloro-5-((6-(hexahydropyrrolo[3,4-c]pyrrol-2(1H)-yl)pyridin-3-yl)oxy)-[1,1′-biphenyl]-3-yl)-N-methylmethanamine]
39.8	–	8.6	CNCc1cc(Oc2ccc(N3C[C@@H]4C[C@H]3CN4)nc2)cc(-c2cc(Cl)cc(Cl)c2)c1 [Example 202, 1-(5-((6-((1S,4S)-2,5-diazabicyclo[2.2.1]heptan-2-yl)pyridin-3-yl)oxy)-3′,5′-dichloro-[1,1′-biphenyl]-3-yl)-N-methylmethanamine]
12.6	–	8.7	CN1C[C@@H]2C[C@H]1CN2c1ccc(Oc2cc(CN3CCC(CC(=O)O)CC3)cc(-c3cc(Cl)cc(Cl)c3)n2)cn1 [Example 203, 2-(1-((2-(3,5-dichlorophenyl)-6-((6-((1S,4S)-5-methyl-2,5-diazabicyclo[2.2.1]heptan-2-yl)pyridin-3-yl)oxy)pyridin-4-yl)methyl)piperidin-4-yl)acetic acid]
31.6	–	8.7	CC(CCN1CCN(c2ncc(Oc3cc(CN4CCC(CC(=O)O)CC4)cc(-c4cc(Cl)cc(Cl)c4)n3)cn2)CC1)[S+](C)[O-] (stereo not drawn) [Example 204, 2-(1-((2-(3,5-Dichlorophenyl)-6-((2-(4-(3-(methylsulfinyl)butyl)piperazin-1-yl)pyrimidin-5-yl)oxy)pyridin-4-yl)methyl)piperidin-4-yl)acetic acid]
15.8	–	8.6	CC(CCN1CCN(c2ncc(Oc3cc(CN4CCC(CC(=O)O)CC4)cc(-c4cc(Cl)cc(Cl)c4)n3)cn2)CC1)S(C)(=O)=O (stereo not drawn) [Example 205, 2-(1-((2-(3,5-Dichlorophenyl)-6-((2-(4-(3-(methylsulfonyl)butyl)piperazin-1-yl)pyrimidin-5-yl)oxy)pyridin-4-yl)methyl)piperidin-4-yl)acetic acid]
10	0.0126	–	CNC(=O)OCC1CCN(Cc2cc(Oc3cnc(N4CCN(C(C)CCC(=O)O)CC4)nc3)nc(-c3cc(Cl)cc(Cl)c3)c2)CC1 (stereo not drawn) [Example 208]
2.51	–	9.6	CNC(=O)OCC1CCN(Cc2cc(Oc3cnc(N4CCN(C(C)CCO)CC4)nc3)nc(-c3cc(Cl)cc(Cl)c3)c2)CC1 (stereo not drawn) [Example 209, (1-((2-(3,5-dichlorophenyl)-6-((2-(4-(4-hydroxybutan-2-yl)piperazin-1-yl)pyrimidin-5-yl)oxy)pyridin-4-yl)methyl)piperidin-4-yl)methyl methylcarbamate]
3.98	–	8.7	CNC(=O)OCC1CCN(Cc2cc(Oc3cnc(N4CCN(CCCS(C)(=O)=O)CC4)nc3)nc(-c3cc(Cl)cc(Cl)c3)c2)CC1 [Example 210, (1-((2-(3,5-dichlorophenyl)-6-((2-(4-(3-(methylsulfonyl)propyl)piperazin-1-yl)pyrimidin-5-yl)oxy)pyridin-4-yl)methyl)piperidin-4-yl)methyl methylcarbamate]

Compound	EC50 [1] [nM]	IC50 [2] [nM]	furin enzyme pIC50 [2]
CC(=O)NCC1CCN(Cc2cc(Oc3ccc(N4CC5CCC(C4)N5CCC(=O)O)nc3)nc(-c3cc(Cl)cc(Cl)c3)c2)CC1 [Example 185, 3-(3-(5-((4-((4-(Acetamidomethyl)piperidin-1-yl)methyl)-6-(3,5-dichlorophenyl)pyridin-2-yl)oxy)pyridin-2-yl)-3,8-diazabicyclo[3.2.1]octan-8-yl)propanoic acid]	31.6	–	9.5
